Source: patent EP4745139A1, “COMPOUND FOR TREATING AND PREVENTING RESPIRATORY SYNCYTIAL VIRUS INFECTION DISEASES” (CSPC Zhongqi Pharmaceutical Technology (Shijiazhuang) Co., …, priority 2023, dated 2025)

Test system: RSV strain A2
Assay: Antiviral detection test against RSV strain A2 based on ELISA method (Hep-2 cells)
Assay type: cell-based, Respiratory Syncytial Virus
Conditions: for IC50: RSV A2 virus strain, Hep-2 cells, ELISA OD450; for AK0529 IC50 / IC50 of the compounds of the present invention: ratio of IC50 values against RSV A2 virus strain, control compound AK0529
Method: Test Example 1: Antiviral detection test of small molecules against RSV strain A2 based on ELISA method
• Source of cell line: Nanjing Kebai Biotechnology Co., Ltd. • Cell type: human laryngeal carcinoma epithelial cells Hep-2
• 96-well culture plate (Cat.No. 3610, Corning Costar); • Fetal bovine serum (Cat.No. 10099-141, GIBCO); • DMEM medium (Cat.No. 11995500BT, GIBCO); • Envision 2104 microplate reader.
• 1. Day 1: The Hep-2 cells were seeded into a 96-well plate at a density of 1×10^4 cells/well; • 2. Day 2: • A. Compound dilution: The compound in the first well was diluted to 9 µM, and 3-fold gradient dilution was performed, with a total of 10 gradients; • B. The Hep-2 cell plate prepared on Day 1 was taken out from the incubator, the supernatant was discarded, and 100 PFU/well/50 µL of the RSV A2 virus was added to each well. The plate was stood at 37°C in a 5% CO2 incubator for 2 hours, the supernatant was aspirated and discarded, and then 100 µL of the gradient-diluted compound or DMEM maintenance medium containing 2% FBS was added to each well; • 3. Day 5: • A. Add fixative: The gradient-diluted compound or medium was discarded from the wells, and 100 µL/well of fixative (4% paraformaldehyde) was added. The plate was stood at room temperature for 10 minutes, and then was washed once with 250 µL PBS; • B. 100 µL/well of a blocking solution was added, and the plate was incubated at 37°C in a 5% CO2 incubator for 30 minutes; • C. After incubation, the detection antibody (Anti RSV Fpro) was added at 0.3 µg/50 µL/well (6 µg/mL), and the plate was incubated at 37°C in a 5% CO2 incubator for 1 hour; • D. After incubation, the HRP secondary antibody was added (diluted 10,000-fold with 0.2% BSA), and the plate was incubated at 37°C in a 5% CO2 incubator for 1 hour; • E. After incubation, the wells were washed for 4 times with PBST, 250 µL/well, each washing was allowed to stand for 5 minutes, and the liquid in the wells was shaken off after completion of the washing; • F. 100 µL/well of a development solution was added, the plate was incubated at room temperature in the dark for 20 minutes, and 50 µL/well of a reaction termination solution was added. The plate was tapped gently to mix the solutions, and the absorbance at 450 nm was measured using the microplate reader. • 4. Data analysis • Inhibition rate of the compound against the virus = 100% - (SC - CC)/(VC - CC) × 100% • SC: OD450 value of the sample (cells + test compound + virus) • CC: OD450 value of the normal growing cell control (cells) • VC: OD450 value of the virus growth control (cells + virus)
The software Graphpad Prism 6 was used, and the calculation formula XY-analysis/Nonlinear regression (curve fit)/Dose response-Inhibition/log (inhibition) vs. response-Variable slope (four parameters) was adopted to fit the IC50 curve and calculate the IC50 value.

[1] = human respiratory syncytial virus

Compound | IC50 [nM] | AK0529 IC50 / IC50 of the compounds of the present invention | IC50 [1] [nM]
4-(4-(((3-aminooxetan-3-yl)methyl)amino)-6-methylquinazolin-2-yl)-1-((deuteromethyl)imino)-2,3,4,5-tetrahydro-1H-1λ^4-benzo[f][1,4]thiazepine-1-oxide [Example 2-24] | < 10 | ratio ≥20 | –
CN=S1(=O)CCN(c2nc(NCC3(N)COC3)c3cc(C)ccc3n2)Cc2ccccc21 (centres unmarked) [Example 2-14, 4-(4-(((3-aminooxetan-3-yl)methyl)amino)-6-methylquinazolin-2-yl)-1-(methylimino)-2,3,4,5-tetrahydro-1H-1λ^4-benzo[f][1,4]thiazepine-1-oxide] | – | – | < 10
Cc1ccc2nc(N3CCS(=O)(=NC(N)=O)c4ccccc4C3)nc(NCC3(N)COC3)c2c1 (centres unmarked) [Example 2-16, 1-(4-(4-(((3-aminooxetan-3-yl)methyl)amino)-6-methylquinazolin-2-yl)-1-oxido-2,3,4,5-tetrahydro-1λ^4-benzo[f][1,4]thiazepin-1-ylidene)urea] | > 10 | – | –
Cc1ccc2nc(N3CCS(=N)(=O)c4ccccc4C3)nc(NCC3(N)COC3)c2c1 (centres unmarked) [Example 2-23, 4-(4-(((3-aminooxetan-3-yl)methyl)amino)-6-methylquinazolin-2-yl)-1-imino-2,3,4,5-tetrahydro-1H-1λ^4-benzo[f][1,4]thiazepine-1-oxide] | – | – | < 10
Cc1ccc2nc(N3CCS(=O)(=NC4CC4)c4ccccc4C3)nc(NCC3(N)COC3)c2c1 (centres unmarked) [Example 2-26, 4-(4-(((3-aminooxetan-3-yl)methyl)amino)-6-methylquinazolin-2-yl)-1-(cyclopropylimino)-2,3,4,5-tetrahydro-1H-1λ^4-benzo[f][1,4]thiazepine-1-oxide] | – | – | < 10
CC(=O)N=S1(=O)CCN(c2nc(NCC3(N)COC3)c3cc(C)ccc3n2)Cc2ccccc21 (centres unmarked) [Example 2-31, N-(4-(4-(((3-aminooxetan-3-yl)methyl)amino)-6-methylquinazolin-2-yl)-1-oxido-2,3,4,5-tetrahydro-1λ^4-benzo[f][1,4]thiazepin-1-ylidene)acetamide] | – | – | < 10
Cc1ccc2nc(N3CCS(=O)(=NC(=O)C4(F)CC4)c4ccccc4C3)nc(NCC3(N)COC3)c2c1 (centres unmarked) [Example 2-32, N-(4-(4-(((3-aminooxetan-3-yl)methyl)amino)-6-methylquinazolin-2-yl)-1-oxido-2,3,4,5-tetrahydro-1λ^4-benzo[f][1,4]thiazepin-1-ylidene)-1-fluorocyclopropane-1-carboxamide] | – | – | < 10
CNC(=O)N=S1(=O)CCN(c2nc(NCC3(N)COC3)c3cc(C)ccc3n2)Cc2ccccc21 (centres unmarked) [Example 2-37, 1-(4-(4-(((3-aminooxetan-3-yl)methyl)amino)-6-methylquinazolin-2-yl)-1-oxido-2,3,4,5-tetrahydro-1λ^4-benzo[f][1,4]thiazepin-1-ylidene)-3-methylurea] | – | – | < 10
Cc1ccc2nc(N3CCS(=O)(=Nc4cnn(C)c4)c4ccccc4C3)nc(NCC3(N)COC3)c2c1 (centres unmarked) [Example 2-38, 4-(4-(((3-aminooxetan-3-yl)methyl)amino)-6-methylquinazolin-2-yl)-1-((1-methyl-1H-pyrazol-4-yl)imino)-2,3,4,5-tetrahydro-1H-1λ^4-benzo[f][1,4]thiazepine-1-oxide] | – | – | > 10
CCN=S1(=O)CCN(c2nc(NCC3(N)COC3)c3cc(C)ccc3n2)Cc2ccccc21 (centres unmarked) [Example 2-43, 4-(4-(((3-aminooxetan-3-yl)methyl)amino)-6-methylquinazolin-2-yl)-1-(ethylimino)-2,3,4,5-tetrahydro-1H-1λ^4-benzo[f][1,4]thiazepine-1-oxide] | – | – | < 10
NC1(CNc2nc(N3CCS(=O)(=NC4CC4)c4ccccc4C3)nc3ccc(C(F)F)cc23)COC1 (centres unmarked) [Example 2-46, 4-(4-(((3-aminooxetan-3-yl)methyl)amino)-6-(difluoromethyl)quinazolin-2-yl)-1-(cyclopropylimino)-2,3,4,5-tetrahydro-1H-1λ^4-benzo[f][1,4]thiazepine-1-oxide] | – | ratio ≥20 | < 10
Cc1ccc2nc(N3CCS(=O)(=NC4CC4)c4ccccc4C3)nc(N3CC(O)(CN)C3)c2c1 (centres unmarked) [Example 4-2, 4-(4-(3-(aminomethyl)-3-hydroxyazetidin-1-yl)-6-methylquinazolin-2-yl)-1-(cyclopropylimino)-2,3,4,5-tetrahydro-benzo[f][1,4]thiazepine-1-oxide] | – | – | < 10
Cc1ccc2nc(N3CCS(=O)(=NCCF)c4ccccc4C3)nc(NCC3(N)COC3)c2c1 (centres unmarked) [Example 4-5, 4-(4-(((3-aminooxetan-3-yl)methyl)amino)-6-methylquinazolin-2-yl)-1-((2-fluoroethyl)imino)-2,3,4,5-tetrahydrobenzo[f][1,4]thiazepine-1-oxide] | – | – | < 10
Cc1ccc2nc(N3CCS(=O)(=NCC(F)F)c4ccccc4C3)nc(NCC3(N)COC3)c2c1 (centres unmarked) [Example 4-6, 4-(4-(((3-aminooxetan-3-yl)methyl)amino)-6-methylquinazolin-2-yl)-1-((2,2-difluoroethyl)imino)-2,3,4,5-tetrahydrobenzo[f][1,4]thiazepine-1-oxide] | – | – | < 10
Cc1ccc2nc(N3CCS(=O)(=NC4CC4)c4ccccc4C3)nc(N[C@@H]3CNC[C@H]3O)c2c1 (stereo partly drawn) [Example 4-10, 1-(cyclopropylimino)-4-(4-(((3R,4R)-4-hydroxypyrrolidin-3-yl)amino)-6-methylquinazolin-2-yl)-2,3,4,5-tetrahydro-benzo[f][1,4]thiazepine-1-oxide] | – | – | < 10
Cc1ccc2nc(N3CCS(=O)(=NC4CC4)c4ccccc4C3)nc(N[C@H]3C[C@@H](N)C3)c2c1 (stereo partly drawn) [Example 4-13, 4-(4-(((1R,3S)-3-aminocyclobutyl)amino)-6-methylquinazolin-2-yl)-1-(cyclopropylimino)-2,3,4,5-tetrahydro-benzo[f][1,4]thiazepine-1-oxide] | – | – | < 10
NC1(CNc2nc(N3CCS(=O)(=NC4CCC4)c4ccccc4C3)nc3ccc(C(F)F)cc23)COC1 (centres unmarked) [Example 4-16, 4-(4-(((3-aminooxetan-3-yl)methyl)amino)-6-(difluoromethyl)quinazolin-2-yl)-1-(cyclobutylimino)-2,3,4,5-tetrahydro-benzo[f][1,4]thiazepine-1-oxide] | – | ratio ≥20 | < 10
N[C@@H]1CCN(c2nc(N3CCS(=O)(=NC4CC4)c4ccccc4C3)nc3ccc(C(F)F)cc23)C1 (some centres unmarked) [Example 4-28] | – | – | < 10
Cc1ccc2nc(N3CCS(=O)(=NC4CC4)c4ccccc4C3)nc(N3CC(N)(CO)C3)c2c1 (centres unmarked) [Example 4-32, 4-(4-(3-amino-3-(hydroxymethyl)azetidin-1-yl)-6-methylquinazolin-2-yl)-1-(cyclopropylimino)-2,3,4,5-tetrahydro-benzo[f][1,4]thiazepine-1-oxide] | – | – | < 10
Cc1ccc2nc(N3CCS(=O)(=NCC4CCO4)c4ccccc4C3)nc(N3CC[C@@H](N)C3)c2c1 (some centres unmarked) [Example 4-39] | < 10 | – | –
Cc1ccc2nc(N3CCS(=O)(=NCCCC#N)c4ccccc4C3)nc(N3CC[C@@H](N)C3)c2c1 (some centres unmarked) [Example 4-47] | – | – | < 10
Cc1ccc2nc(N3CCS(=O)(=NCCC(C)(C)O)c4ccccc4C3)nc(N3CC[C@@H](N)C3)c2c1 (some centres unmarked) [Example 4-56] | – | – | < 10
COC(=O)C1(CN)CN(c2nc(N3CCS(=O)(=NC4CC4)c4ccccc4C3)nc3ccc(C)cc23)C1 (centres unmarked) [Example 4-57, methyl 3-(aminomethyl)-1-(2-(1-(cyclopropylimino)-1-oxido-1,2,3,5-tetrahydro-benzo[f][1,4]thiazepin-4-yl)-6-methylquinazolin-4-yl)azetidine-3-carboxylate] | – | ratio ≥20 | < 10
CC(O)(CCN=S1(=O)CCN(c2nc(N3CC[C@H](N)C3)c3cc(C(F)F)ccc3n2)Cc2ccccc21)C(F)(F)F (stereo partly drawn) [Example 4-63, 4-(4-((S)-3-aminopyrrolidin-1-yl)-6-(difluoromethyl)quinazolin-2-yl)-1-((4,4,4-trifluoro-3-hydroxy-3-methylbutyl)imino)-2,3,4,5-tetrahydro-benzo[f] [1,4]thiazepine-1-oxide] | – | – | < 10
Cc1ccc2nc(N3CCS(=O)(=NCCCO)c4ccccc4C3)nc(N3CC[C@H](N)C3)c2c1 (some centres unmarked) [Example 4-64] | – | – | < 10
